The source of these data is patent US20250195483A1, “SPIRO PIPERIDINE DERIVATIVES AS INHIBITORS OF APOL1 AND METHODS OF USING SAME” (Vertex Pharmaceuticals Incorporated, priority 2022, published 2025).

A value given as a limit tells only on which side of the number the result lay.

This experiment addresses T1, APOL1 (Homo sapiens, UniProt O14791).
T1 sequence (O14791 1-398): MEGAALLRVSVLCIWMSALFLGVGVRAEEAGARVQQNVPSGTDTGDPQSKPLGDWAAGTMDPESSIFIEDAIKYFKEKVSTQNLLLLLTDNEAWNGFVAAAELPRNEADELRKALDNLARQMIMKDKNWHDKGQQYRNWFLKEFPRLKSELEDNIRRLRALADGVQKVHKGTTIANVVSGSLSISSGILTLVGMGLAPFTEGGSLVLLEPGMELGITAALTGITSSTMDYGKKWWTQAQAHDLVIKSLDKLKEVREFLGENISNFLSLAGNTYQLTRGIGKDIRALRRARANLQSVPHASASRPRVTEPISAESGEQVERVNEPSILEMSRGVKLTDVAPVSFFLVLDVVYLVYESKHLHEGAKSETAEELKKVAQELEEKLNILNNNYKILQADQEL
Briefly: MultiTox-Fluor Multiplex Cytotoxicity Assay, tet-inducible APOL1 T-REx-HEK293 cells (G0, G1 or G2 clone not specified for Table 20). Format: cell-based. The settings on record: tet-induced, 24 hours with compound, ratio of dead to live cells, read-out: IP50 (i.e., IC50 for cell proliferation). On the procedure:
Human embryonic kidney (HEK293) cell lines containing a tet-inducible expression system (T-REx™; Invitrogen, Carlsbad, CA) and Adeno-associated virus site 1 pAAVS1-Puro-APOL1 G0 or pAAVS1-Puro-APOL1 G1 or pAAVS1-Puro-APOL1 G2 Clones G0 DC2.13, G1 DC3.25, and G2 DC4.44 were grown in a T-225 flask at ˜90% confluency in cell growth media (DMEM, 10% Tet-free FBS, 2 mM L-glutamine, 100 Units/mL penicillin-streptomycin, 5 μg/mL blasticidin S HCl, 1 μg/mL puromycin dihydrochloride). Cells were washed with DPBS and then trypsinized to dissociate from the flask. Media was used to quench the trypsin, cells were then pelleted at 200 g and resuspended in fresh cell assay media (DMEM, 2% Tet-free FBS, 2 mM L-glutamine, 100 Units/mL penicillin-streptomycin). Cells were counted and diluted to 1.17×10^6 cells/mL. 20 μL of cells (23,400/well) were dispensed in every well of a 384-well Poly-D-Lysine coated plate using the Multidrop dispenser. The plates were then incubated at room temperature for one hour.
Tetracycline is needed to induce APOL1 expression. 1 mg/mL tet stock in water was diluted to 250 ng/mL (5×) in cell assay media. 60 μL of cell assay media (no tet control) was dispensed in columns 1 and 24, and 60 μL of 5× tet in 384-PP-round bottom plate was dispensed in columns 2 to 23 with the Multidrop dispenser.
Assay ready plates from the Global Compound Archive were ordered using template 384_APOL1Cell_DR10n2_50 uM_v3. Compounds were dispensed at 200 nL in DMSO. The final top concentration was 10 μM with a 10 point 3-fold dilution in duplicate in the MultiTox assay.
20 μL was transferred from the 5× tet plate to the ARP and mixed, then 5 μL of 5× tet and the compounds were transferred to the cell plate and mixed using the Bravo. The cell plate was placed in the humidified 37° C. 5% CO2 incubator for 24 hours.
The MultiTox-Fluor Multiplex Cytotoxicity Assay was performed in accordance with the manufacturer's protocol. After cells were incubated with tet and compound for 24 hours, 25 μL of 1× MultiTox reagent was added to each well using the Multidrop dispenser; the plates were placed on a plate shaker (600 rpm) for 2 minutes, then centrifuged briefly and placed back in the 37° C. incubator for 30 minutes. The cell viability (excitation: 400 nm, emission: 486 nm) and cytotoxicity (excitation: 485 nm, emission: 535 nm) were read using the EnVision plate reader. A ratio of dead (cytotoxicity) to live (viability) cells was reported. Data was exported and analyzed in Genedata. Data was normalized using percent of control, no tet (100% viability), and 50 ng/mL tet treated (0% viability), and fit using Smart Fit settings in Genedata.
Take `NC(=O)C1OC2(CCN(Cc3cnn(-c4ccccc4)c3)CC2)c2cc(Cl)ccc21` (single isomer, unassigned) [Compound 193, 5-chloro-1′-[(1-phenylpyrazol-4-yl)methyl]spiro[1H-isobenzofuran-3,4′-piperidine]-1-carboxamide]: the IC50 lay within 50 to 500 nM.
The value for `NC(=O)C1OC2(CCN(Cc3cnn(-c4ccccc4)c3)CC2)c2cc(Cl)ccc21` (single isomer, unassigned) [Compound 194, 5-chloro-1′-[(1-phenylpyrazol-4-yl)methyl]spiro[1H-isobenzofuran-3,4′-piperidine]-1-carboxamide] was not above 50 nM; that for `Cc1ccc2c(c1)C1(CCN(Cc3cn(CCS(C)(=O)=O)nn3)[C@@H](C)C1)OC2(C)C` (single isomer, unassigned) [Compound 290, (2′S)-2′,3,3,6-tetramethyl-1′-((1-(2-(methylsulfonyl)ethyl)-1H-1,2,3-triazol-4-yl)methyl)-3H-spiro[isobenzofuran-1,4′-piperidine]] was not below 500 nM; that for `C[C@H]1CC2(CCN1Cc1cn(CCS(C)(=O)=O)nn1)OC(C)(C)c1ccc(Cl)cc12` (single isomer, unassigned) [Compound 291, (2′S)-5-chloro-1,1,2′-trimethyl-1′-[[1-(2-methylsulfonylethyl)triazol-4-yl]methyl]spiro[isobenzofuran-3,4′-piperidine]] was not below 500 nM.
Then `C[C@H]1CC2(CCN1Cc1cnn(-c3ccccc3)c1)OC(C(N)=O)c1ccc(Cl)cc12` (single isomer, unassigned) [Compound 293, (2′S)-5-chloro-2′-methyl-1′-[(1-phenylpyrazol-4-yl)methyl]spiro[1H-isobenzofuran-3,4′-piperidine]-1-carboxamide], with 50 to 500 nM; and `CNC(=O)C1OC2(CCN(Cc3cnn(-c4ccccc4)c3)[C@@H](C)C2)c2cc(Cl)ccc21` (single isomer, unassigned) [Compound 294, (2′S)-5-chloro-N,2′-dimethyl-1′-[(1-phenylpyrazol-4-yl)methyl]spiro[1H-isobenzofuran-3,4′-piperidine]-1-carboxamide], with not below 500 nM.
The value for `C[C@H]1CC2(CCN1Cc1cnn(CCS(C)(=O)=O)c1)CC(O)c1ccc(Cl)cc12` (single isomer, unassigned) [Compound 306, (2′S)-5-chloro-2′-methyl-1′-[[1-(2-methylsulfonylethyl)pyrazol-4-yl]methyl]spiro[indane-3,4′-piperidine]-1-ol] was not above 50 nM.
For `C[C@H]1CC2(CCN1Cc1cnn(CCS(C)(=O)=O)c1)CC(O)c1ccc(Cl)cc12` (single isomer, unassigned) [Compound 307, (2′S)-5-chloro-2′-methyl-1′-[[1-(2-methylsulfonylethyl)pyrazol-4-yl]methyl]spiro[indane-3,4′-piperidine]-1-ol], the IC50 is not above 50 nM.
For the compound `C[C@H]1CC2(CCN1Cc1cnn(CCS(C)(=O)=O)c1)C(=O)Nc1ccc(Cl)cc12` (stereo in doubt) [Compound 74, (2′S, 3R)-5-chloro-2′-methyl-1′-[[1-(2-methylsulfonylethyl)pyrazol-4-yl]methyl]spiro[indoline-3,4′-piperidine]-2-one], the IC50 was not below 500 nM.
The value for `CS(=O)(=O)CCn1cc(CN2CCC3(CC2)C(=O)Nc2ccc(Cl)cc23)cn1` [Compound 1, 5-chloro-1′-[[1-(2-methylsulfonylethyl)pyrazol-4-yl]methyl]spiro[indoline-3,4′-piperidine]-2-one] was 50 to 500 nM; that for `CC(CO)(CO)Cn1cc(CN2CCC3(CC2)C(=O)Nc2ccc(Cl)cc23)cn1` [Compound 2] was not above 50 nM.
Then `Nc1ncc(CN2CCC3(CC2)C(=O)Nc2ccc(Cl)cc23)s1` [Compound 3], with 50 to 500 nM; and `O=C1Nc2ccc(Cl)cc2C12CCN(Cc1cnn(CCO)c1)CC2` [Compound 4], with not below 500 nM; and `COc1cncc(CN2CCC3(CC2)C(=O)Nc2ccc(Cl)cc23)c1` [Compound 5], with not below 500 nM.
With `CC(=O)Nc1ccc(CN2CCC3(CC2)C(=O)Nc2ccc(Cl)cc23)cc1` [Compound 6], the IC50 fell in the range of 50 to 500 nM.
Then `CC(C)Oc1ccc(CN2CCC3(CC2)C(=O)Nc2ccc(Cl)cc23)cc1` [Compound 7], with 50 to 500 nM; and `COc1ccc(CN2CCC3(CC2)C(=O)Nc2ccc(Cl)cc23)cc1F` [Compound 8], with 50 to 500 nM.
The value for `CN(C)c1ncc(CN2CCC3(CC2)C(=O)Nc2ccc(Cl)cc23)cn1` [Compound 9] was 50 to 500 nM; that for `CC(C)(CO)Nc1ncc(CN2CCC3(CC2)C(=O)Nc2ccc(Cl)cc23)cn1` [Compound 10] was 50 to 500 nM.
In the case of `O=C1Nc2ccc(Cl)cc2C12CCN(Cc1cn[nH]c1)CC2` [Compound 11], the IC50 was in the range of 50 to 500 nM.
The value for `CCO/N=C(\C)c1ccc(CN2CCC3(CC2)C(=O)Nc2ccc(Cl)cc23)cn1` [Compound 12] was 50 to 500 nM; that for `Cn1cc(CN2CCC3(CC2)C(=O)Nc2ccc(Cl)cc23)cn1` [Compound 13] was 50 to 500 nM; that for `O=C1Nc2ccc(Cl)cc2C12CCN(Cc1cccc(OC(F)F)c1)CC2` [Compound 14] was not below 500 nM.
The value for `N#Cc1ccc(CN2CCC3(CC2)C(=O)Nc2ccc(Cl)cc23)c(F)c1` [Compound 15] was not below 500 nM; that for `O=C1Nc2ccc(Cl)cc2C12CCN(Cc1ccc(OC(F)F)cc1)CC2` [Compound 19] was not below 500 nM.
Then `N#Cc1cc(CN2CCC3(CC2)C(=O)Nc2ccc(Cl)cc23)ccn1` [Compound 20], with not below 500 nM; and `CS(=O)(=O)CCn1cc(CN2CCC3(CC2)C(=O)Nc2ccc(F)cc23)cn1` [Compound 21], with not below 500 nM; and `CS(=O)(=O)CCn1cc(CN2CCC3(CC2)C(=O)Nc2ccc(Br)cc23)cn1` [Compound 22], with 50 to 500 nM.
Turning to `Cc1ccc2c(c1)C1(CCN(Cc3cnn(CCS(C)(=O)=O)c3)CC1)C(=O)N2` [Compound 23], the IC50 fell in the range of 50 to 500 nM.
The value for `Cc1ccc2c(c1)C1(CCN(Cc3cnn(CC4(C)COC4)c3)CC1)C(=O)N2` [Compound 24] was not below 500 nM.
Then `Cc1ccc2c(c1)C1(CCN(Cc3cnn(CC(=O)N(C)C)c3)CC1)C(=O)N2` [Compound 25], with not below 500 nM; and `Cc1ccc2c(c1)C1(CCN(Cc3cnn(CCO)c3)CC1)C(=O)N2` [Compound 26], with not below 500 nM; and `COCCn1cc(CN2CCC3(CC2)C(=O)Nc2ccc(C)cc23)cn1` [Compound 27], with not below 500 nM.
Then `CNC(=O)Cn1cc(CN2CCC3(CC2)C(=O)Nc2ccc(C)cc23)cn1` [Compound 28], with not below 500 nM.
As to `CS(=O)(=O)CCn1cc(CN2CCC3(CC2)C(=O)Nc2c(CO)cc(Cl)cc23)cn1` [Compound 29], the IC50 was not above 50 nM.
Then `CS(=O)(=O)CCn1cc(CN2CCC3(CC2)C(=O)Nc2ccc(C#N)cc23)cn1` [Compound 30], with not below 500 nM; and `CS(=O)(=O)CCn1cc(CN2CCC3(CC2)C(=O)Nc2ccc(CC(F)F)cc23)cn1` [Compound 31], with not below 500 nM.
Then `CS(=O)(=O)CCn1cc(CN2CCC3(CC2)C(=O)Nc2ccc(C(F)C(F)F)cc23)cn1` (stereo not shown) [Compound 32], with not below 500 nM; and `CS(=O)(=O)CCn1cc(CN2CCC3(CC2)C(=O)Nc2ccc(C(F)F)cc23)cn1` [Compound 33], with 50 to 500 nM; and `Cn1cc(CN2CCC3(CC2)C(=O)Nc2ccc(CC(F)F)cc23)cn1` [Compound 34], with not below 500 nM.
